Data from patent publication US9326972B2, “Use of phenylmethimazoles, methimazole derivatives, and tautomeric cyclic thiones for the treatment of autoimmune/inflammatory diseases associated with toll-like receptor overexpression” (Ohio University, priority 2004, dated 2016).

Experiments:
IFN-β promoter = IFN-β promoter luciferase reporter in FRTL-5 thyrocytes; type: cell-based, rat
Procedure: FIG. 5. Phenylmethimazole (CIO) and Methimazole (MMI) inhibit the ability of Poly (I:C), lipopolysaccharide (LPS) and IL-1β to increase IFN-β gene expression (Top Left) and IRF-3 transactivation (Top Right) in FRTL-5 thyrocytes. (Top Left) Cells were co-transfected with IFNβ-Luc and control vector (pRLTk-Int), then treated with or without (−) Poly (I:C) (100 μg/ml), LPS (100 ng/ml), or IL-1β (10 ng/ml) in the presence of the vehicle (DMSO) alone (−), C10, or MMI for 6 hours. Data was obtained with the Dual Luciferase Assay system. (Top Right) Cells were co-transfected with Gal4 DBD/IRF-3 and Gal4-Luc then treated with nothing (−), poly (I:C), LPS, or IL-1β as in (Top Left) in the presence of DMSO or C10 for 6 hours. Data was obtained by Luciferase assay. Also shown is a graphic depiction (Bottom) of how the cis reporting system is working. Data are representative of multiple experiments.
C10, at 0.5 mM, inhibited the ability of poly (I:C) to increase IFN-β promoter activity (luciferase luminescence; P<0.01) when incubated with FRTL-5 thyrocytes transfected with pIFN-β-luc constructs (FIG. 5 Top Left, Poly (I:C) vs untreated (−)).
Plasmids for Reporter Gene Assays. Human IRF-3 was amplified from human cDNA and cloned into pCR 2.1 by the TOPO/TA (Invitrogen, Carlsbad, Calif.) cloning method, and then sequenced. […]

ISRE = assay: ISRE-Luc reporter gene in FRTL-5 thyrocytes; type: cell-based, rat
Procedure: Cells were co-transfected with ISRE-Luc and pRLTk-Int and then treated without (none) or with Poly I:C (100 μg/ml), LPS (100 ng/ml), IL-1β (10 ng/ml) TNF-α (25 ng/ml), IFN-β (100 U/ml) or IFN-γ (1000 U/ml) in the presence of DMSO (−) or C10 for 6 hours. Data were obtained using the Dual Luciferase Assay system. The effect on the ISRE element is not duplicated by an NF-κB reporter plasmid despite the similarity of the two elements: ([…])5 (SEQ ID NO:3) vs. ([…])5 (SEQ ID NO:4), respectively. Data are representative of multiple experiments.
Plasmids for Reporter Gene Assays. Human IRF-3 was amplified from human cDNA and cloned into pCR 2.1 by the TOPO/TA (Invitrogen, Carlsbad, Calif.) cloning method, and then sequenced. IRF-3 was then excised by EcoRI digestion and subcloned into pCMV-BD (Stratagene, La Jolla, Calif.) for use in transactivation assays. To construct IFN-β-luc the human IFN-β promoter sequence was amplified from human genomic DNA (Clontech, Palo Alto, Calif.)) using Ex Taq™ Polymerase (Takara, Madison, Wis.). The PCR fragment contained human IFN-β promoter sequence from −125 to +34 relative to the transcription start site (+1) and incorporated KpnI and XhoI restriction sites at the 5′ and 3′ ends, respectively. The primers were as follows: hIFN-β (−125) KpnI (5′-[…]-3′) (SEQ ID NO:9) and hIFN-β (+34) XhoI (5′-[…]-3′). […]

HAEC = assay: IFN-β-induced IRF-1 and Stat1 phosphorylation in human aortic endothelial cells (immunoblot); type: cell-based

Structure (SMILES): Cn1c(-c2ccccc2)cnc1S [Compound C10, 5-Phenylmethimazole]
- LPS- or IL-1β-increased IFN-β luciferase activity (IFN-β promoter; FRTL-5, LPS 100 ng/ml or IL-1β 10 ng/ml, 0.5 mM C-10, 5 mM MMI, P<0.05 or better): inhibited the increase
- poly (I:C)-increased IFN-β promoter activity (luciferase) (IFN-β promoter; FRTL-5, Poly (I:C) 100 μg/ml, 6 hours, C10 0.5 mM, P<0.01): inhibited
- ISRE activation by poly (I:C), LPS, IL-1β, TNF-α, IFN-β and IFN-γ (ISRE-Luc) (ISRE; FRTL-5, 6 hours): effective inhibitor
- ISRE-Luc Relative Luciferase Activity % of Control (±15%), +C10 (ISRE; FRTL-5, Ligand None, 6 hours): 100 % of Control
- Stat1 serine phosphorylation at residue 727 (HAEC; 100 U/mL hIFN-β 2 hours, 1 mM C10): decreased
- IFN-β induced Stat1 phosphorylation (Y701) (HAEC; 2 hours, C10 1 mM): decrease
- IFN-β induction of IRF-1 protein (HAEC; 2 hours, C10 1 mM): strongly decreased
